Like-named read-outs stand apart in the source and are kept apart here. Where a SMILES comes first, the peptide text is derived from it. Where no end group is shown, it is not given here. [ ]: non-standard residue; d: D form. The star is where a group is joined. Undecanoyl = CCCCCCCCCCC(=O)*; Lauroyl = CCCCCCCCCCCC(=O)*; Octanoyl = CCCCCCCC(=O)*
Tests used:
[1] = test system: S. aureus; assay: Kill curve in 80% serum, S. aureus; format: cell-based
Description: It should be noted that in addition to MIC data, the lipo-hexapeptides can also be distinguished by their ability to kill bacteria in the presence of biological constituents such as serum. […] This activity, an indicator of therapeutic potential, is not obvious from the MIC data alone.

[2] = Systemic toxicity, tail vein injection; format: in vivo; conditions: mouse, IV, 20 mg/kg
[3] = test system: S. aureus MRSA; assay: Kill kinetics in lipid (liposome) environment with or without serum; format: cell-based; conditions: peptide 0.5 mg/ml; liposomes, presence or absence of serum
Description: Referring to FIG. 8, not only does lipidation improve the activity of hexapeptides in serum it improves activity in a lipid environment which is a mimic of the human acne lesion environment. The human sebaceous gland secretion, also called sebum, contains squalene, cholesterol, cholesterol esters, wax esters, and triglycerides in which a large […] of P. acnes appears to take advantage of this environment and hydrolyzes certain sebaceous lipids. The pre-pubertal and pubertal increase in sebum secretion is almost certainly involved in the pathogenesis of adolescent acne. The activity of SEQ ID NO: 55 was studied in this environment compared to P64(SEQ ID NO:90), a traditional cationic antimicrobial peptide. Due to the fact that most lipids are water insoluble, peptide-liposomes composed of phosphatidylcholine, phosphatidylglycerol and cholesterol in the molar ratio of 7:2:1 in saline were used and kill kinetics of the peptides were assessed in the presence or absence of serum.

[4] = test system: Trychophyton rubrum; assay: MIC100 against dermatophyte Trychophyton rubrum; format: cell-based; conditions: T. rubrum
Experimental: (§1) In order to compare the activity of various antimicrobial peptides, including hexapeptide SEQ ID NO:1 (P0666), MIC were determined against the dermatophytes Trychophyton rubrum and Trychophyton mentagrophytes. The concentration of samples investigated were: 2000, 1000, 500, 250 and 125 μg/ml, respectively. The medium used was modified Sabouraud's media without agar. For a 100 mL of modified Sabouraud medium: 3 g of Sabouraud's dextrose broth (Difco) was mixed into 100 mL of deionized water. The pH was adjusted to 7.0 with 0.1 N NaOH. The solution was autoclaved for thirty minutes. 940 μL of medium was poured into sterile 20 mL test tubes with plastic caps and was allowed to cool.
(§2) 50 μL of […] was added to each 20 mL test tube to make the required concentration. A control tube was composed of 50 μL of saline without sample. For the MIC experiments,
(§3) 10 μL of organism suspended in saline was added to the each 20 mL test tube and vortexed slightly. Each of the test tubes was covered in parafilm and maintained on a shaker at 27° C. at a speed of approximately 100 rpm.
(§4) The growth/inhibition of the organism was observed on a daily basis. […] The Minimum Inhibition Concentration (MIC100) for compounds F1 to F10 against fungus Trychophyton rubrum and Trychophyton mentagrophytes at 10 days.

[5] = test system: Trychophyton mentagrophytes; assay: MIC100 against dermatophyte Trychophyton mentagrophytes; format: cell-based; conditions: T. mentagrophytes
Experimental: as §1, §2, §3, §4

[6] = test system: Pseudomonas aeruginosa; format: cell-based; set-up: MIC, lipid length SAR: unit not given here; conditions: P.aeruginosa
Experimental: (§5) MICs (minimal inhibitory concentrations) were determined for the hexapeptides of interest using a slightly modified version of the NCCLS (National Committee for Clinical Laboratory Standards) broth microdilution method as described previously (Steinberg et al., AAC 41: 1738, 1997). Briefly, antimicrobial agents were prepared as 10× concentrates in the most appropriate solvent. For the hexapeptide, 0.01% acetic acid containing 0.2% bovine serum albumin as a carrier protein was used. Inocula were prepared by resuspending colonies from a BAP (please spell out this term) in medium and adjusting the suspension to match that of a 0.5 McFarland standard. The suspension was diluted into fresh medium (as recommended by NCCLS for the organism) to give 2×10^5 to 7×10^5 CFU/ml for bacteria or 2×10^3 to 7×10^3 CFU/ml for Candida. After dispensing 100 μl aliquots of the microbial suspension into each well of a 96-well polypropylene microtiter plate, 11 μl of test compound was added. The MIC was defined as the lowest concentration of drug which prevented visible turbidity after 16 to 20 hours (bacteria) or 46 to 50 hours (Candida) at 35° C.

[7] = test system: Salmonella typhimurium 14028S; assay: MIC, broth microdilution, S. typhimurium; format: cell-based; set-up: unit not given here; conditions: S.typhimurium
Experimental: as §5

[8] = test system: azole resistant strains of C. albicans; format: cell-based; set-up: MIC-SEQ ID NO: 55 + azole, peptide part / MIC-SEQ ID NO: 55 + azole, azole part: unit not given beside the values; conditions: in combination with clotrimazole
Experimental: (§6) The fractional inhibitory concentration (FIC) index was used to determine the synergy between antimicrobial agents. Peptide MICs against test microorganisms were determined three times on separate occasions. […]
All strains are azole resistant clinical isolates from Prof. Ted White (Seattle Biotechnology Research Institute, Seattle)

[9] = test system: P. aeruginosa; format: cell-based; conditions: combined with polymyxin B
Experimental: as §6

[10] = test system: S. epidermidis ATCC12228; assay: MIC, broth microdilution, S. epidermidis; format: cell-based; set-up: unit not given beside the values; conditions: #86: S. epidermidis ATCC12228
Experimental: as §5

[11] = test system: P. acnes; assay: Activity against extended panel of P. acnes; format: cell-based; set-up: unit not given here
Description: A very promising application for short bioactive peptides is for dermatological indications such as acne.

[12] = test system: MRSA; assay: Kill curve in 10% sheep serum-phosphate buffer against MRSA; format: cell-based, S. aureus; set-up: MRSA count in kill curve: unit not given here

In the case of “Lau-kfkwpw-NH2 (Lauroyl-[dK][dF][dK][dW][dP][dW]-NH2; SMILES CCCCCCCCCCCC(=O)N[C@H](CCCCN)C(=O)N[C@H](Cc1ccccc1)C(=O)N[C@H](CCCCN)C(=O)N[C@H](Cc1c[nH]c2ccccc12)C(=O)N1CCC[C@@H]1C(=O)N[C@H](Cc1c[nH]c2ccccc12)C(N)=O) [SEQ ID NO: 83]”, the “killing of S. aureus in 80% serum (in words)” value [1] is reported as “perform very well”.

For KYKKALKKLAKLL-NH2 [SEQ ID NO:92], the “Result (systemic toxicity)” value ([2]; solvent ringers) was 3/3 dead.

With FAKALKALLKALKAL-NH2 [SEQ ID NO: 90] the “kill kinetics in lipid environment (in words)” value [3] was “shown to be effective”, the MIC100 ([4]; at 10 days) was 1000 mg/L and the MIC100 ([5]; at 10 days) was 500 mg/L.

In the case of “Und-KFKWPW-NH2 (Undecanoyl-KFKWPW-NH2; SMILES CCCCCCCCCCC(=O)N[C@@H](CCCCN)C(=O)N[C@@H](Cc1ccccc1)C(=O)N[C@@H](CCCCN)C(=O)N[C@@H](Cc1c[nH]c2ccccc12)C(=O)N1CCC[C@H]1C(=O)N[C@@H](Cc1c[nH]c2ccccc12)C(N)=O) [SEQ ID NO: 79]”, the “MIC, lipid length SAR” value [6] is reported as 8-16, the “MIC, lipid length SAR” value [7] is reported as 8-16 and the “killing of S. aureus in 80% serum (in words)” value [1] is reported as “perform very well”.

With CCCCCCCC(=O)N[C@@H](CCCCN)C(=O)N[C@@H](Cc1ccccc1)C(=O)N[C@@H](CCCCN)C(=O)N[C@@H](Cc1c[nH]c2ccccc12)C(=O)N1CCC[C@H]1C(=O)N[C@@H](Cc1c[nH]c2ccccc12)C(N)=O [SEQ ID NO: 55, OCT-KFKWPW-NH2] (Octanoyl-KFKWPW-NH2) the “MIC-SEQ ID NO: 55 + azole, peptide part” value ([8]; C. albicans #185) was 16, the “MIC-SEQ ID NO: 55 + azole, peptide part” value ([8]; C. albicans #186) was 2 and the “MIC-SEQ ID NO: 55 + azole, peptide part” value ([8]; C. albicans #187) was 4. For the same molecule, the “MIC-SEQ ID NO: 55 + azole, peptide part” value ([8]; C. albicans #192) was 4, the “MIC-SEQ ID NO: 55 + azole, peptide part” value ([8]; C. albicans #196) was 4 and the “MIC-SEQ ID NO: 55 + azole, peptide part” value ([8]; C. albicans #199) was 4. For the same molecule, the “MIC, lipid length SAR” value [6] was 32, the “MIC-NO: 55 combined” value ([9]; P. aeruginosa 100609) was 2 mg/L and the “MIC-NO: 55 combined” value ([9]; P. aeruginosa H187) was 8 mg/L. For the same molecule, the “MIC-NO: 55 combined” value ([9]; P. aeruginosa H401) was 2 mg/L, the “MIC-NO: 55 combined” value ([9]; P. aeruginosa M917) was 16 mg/L and the MIC [10] was 8. For the same molecule, the “MIC, lipid length SAR” value [7] was 32, the “Activity (MIC) against P. acnes” value ([11]; ATCC 6921) was 4 and the “Activity (MIC) against P. acnes” value ([11]; ATCC 6922) was 8. The “Activity (MIC) against P. acnes” value ([11]; ATCC 6923) was 8, the “Activity (MIC) against P. acnes” value ([11]; ATCC 11828) was 8 and the “Activity (MIC) against P. acnes” value ([11]; ATCC 12930) was 8. The “Activity (MIC) against P. acnes” value ([11]; ATCC 25746) was 1, the “Activity (MIC) against P. acnes” value ([11]; ATCC 29399) was 16 and the “Activity (MIC) against P. acnes” value ([11]; ATCC 33179) was 16. For the same molecule, the “Activity (MIC) against P. acnes” value ([11]; ATCC 49929) was 0.125, the “Activity (MIC) against P. acnes” value ([11]; ATCC 51277) was 4 and the “MRSA count in kill curve” value ([12]; buffer, 1 mg/ml, 30 min) was 100. For the same molecule, the “MRSA count in kill curve” value ([12]; buffer, 1 mg/ml, 1 hour) was 100, the “MRSA count in kill curve” value ([12]; buffer, 1 mg/ml, 2 hours) was 10 and the “MRSA count in kill curve” value ([12]; buffer, 1 mg/ml, 3 hours) was 10. For the same molecule, the “MRSA count in kill curve” value ([12]; buffer, 1 mg/ml, 4 hours) was 10, the “MRSA count in kill curve” value ([12]; buffer, 1 mg/ml, 5 hours) was 10 and the “MRSA count in kill curve” value ([12]; serum, 0.5 mg/ml, 30 min) was 10. The “MRSA count in kill curve” value ([12]; serum, 0.5 mg/ml, 1 hour) was 10, the “MRSA count in kill curve” value ([12]; serum, 0.5 mg/ml, 2 hours) was 10 and the “MRSA count in kill curve” value ([12]; serum, 0.5 mg/ml, 3 hours) was 10. For the same molecule, the “MRSA count in kill curve” value ([12]; serum, 0.5 mg/ml, 4 hours) was 10, the “MRSA count in kill curve” value ([12]; serum, 0.5 mg/ml, 5 hours) was 10 and the “MRSA count in kill curve” value ([12]; serum, 1 mg/ml, 30 min) was 3900. For the same molecule, the “MRSA count in kill curve” value ([12]; serum, 1 mg/ml, 1 hour) was 1100, the “MRSA count in kill curve” value ([12]; serum, 1 mg/ml, 2 hours) was 100 and the “MRSA count in kill curve” value ([12]; serum, 1 mg/ml, 3 hours) was 30. The “MRSA count in kill curve” value ([12]; serum, 1 mg/ml, 4 hours) was 20, the “MRSA count in kill curve” value ([12]; serum, 1 mg/ml, 5 hours) was 60 and the “MRSA count in kill curve” value ([12]; serum, 2 mg/ml, 30 min) was 1000000. The “MRSA count in kill curve” value ([12]; serum, 2 mg/ml, 1 hour) was 1000000, the “MRSA count in kill curve” value ([12]; serum, 2 mg/ml, 2 hours) was 1000000 and the “MRSA count in kill curve” value ([12]; serum, 2 mg/ml, 3 hours) was 1000000. For the same molecule, the “MRSA count in kill curve” value ([12]; serum, 2 mg/ml, 4 hours) was 1000000, the “MRSA count in kill curve” value ([12]; serum, 2 mg/ml, 5 hours) was 1000000 and the “kill kinetics in lipid environment (in words)” value [3] was “shown to be effective”.

In the case of KFKWPW-NH2 [SEQ ID NO:1], the growth of organism ([4]; 125 ppm, day ten) is reported as “only a slight growth”, the growth of organism ([5]; 125 ppm, day ten) is reported as “only a slight growth” and the “Result (systemic toxicity)” value ([2]; solvent water) is reported as “did not elicit systemic toxicity”.

From patent publication US7407940B2, “Antimicrobial hexapeptides” (Helix BioMedix Inc., priority 2005, dated 2008)
